Where two headings read alike, the source gives them in different places.
Columns and labels:
[1] = test system: HIV-1 laboratory viral strain NL4.3 (wild type virus); assay: Anti-viral assay in vitro (MTT, infected MT-4 cells); format: cell-based; conditions: Human immunodeficiency virus 1, MT4, 144 h
Method: Anti-viral and Cytotoxicity Assays In Vitro
To evaluate the EC50 of our compounds, various drug concentrations are incubated with the infected cell for six days and then the metabolic activity of the cells is monitored by the MTT assay. (See A. J. Japour et al, Antimicrobial Agents and Chemotherapy, 37, 1095-1101, 1993 and R. Pauwels et al. Journal of Virological Methods, 20, 309-321, 1988)
We use the laboratory viral strain NL4.3 as wild type virus and the cell line used is MT-4 which is a T-cell line highly sensitive to HIV-1. We also use some WT clinical strains. To address the resistance issue we assay the inhibitors with NL4.3 mutants which are designed to be resistant to specific commercially,available inhibitors

HIV protease = HIV protease (Human immunodeficiency virus type 1 group M subtype B, UniProt P04585); assay: biochemical
[2] = MT-4 cells infected with NL4.3, six days, MTT assay, read-out: EC50

With `CC(C)CN([C@H](CO)CCCCNC(=O)[C@H](Cc1ccc2ccccc2c1)NC(=O)c1cnccn1)S(=O)(=O)c1ccc(N)cc1` [Example 62, (1S,5S)-Pyrazine-2-carboxylic Acid (1-{5-[(4-Amino-benzenesulfonyl)-isobutyl-amino]-6-hydroxy-hexylcarbamoyl}-2-naphthalen-2-yl-ethyl)-amide] the EC50 [1, 2] was 361 nM and the Ki (HIV protease) was 2.1 nM.

For `CC(C)CN([C@H](CO)CCCCNC(=O)[C@H](Cc1ccc2ccccc2c1)NC(=O)c1cccnc1)S(=O)(=O)c1ccc(N)cc1` [Example 54, (1S,5S)-N-(1-{5-[(4-Amino-benzenesulfonyl)-isobutyl-amino]-6-hydroxy-hexylcarbamoyl}-2-naphthalen-2-yl-ethyl)-nicotinanide], the EC50 [1, 2] was 146 nM and the Ki (HIV protease) was 1.4 nM.

`COC(=O)N[C@H](C(=O)NCCCC[C@@H](CO)N(CC(C)C)S(=O)(=O)c1ccc(N)cc1)C(c1ccccc1)c1ccccc1` [Example 34, (1S,5S)-(1-{5-[(4-Amino-benzenesulfonyl)-isobutyl-amino]-6-hydroxy-hexylcarbamoyl}-2,2-diphenyl-ethyl)-carbamic Acid Methyl Ester] was tested, and the EC50 [1, 2] was 12 nM and the Ki (HIV protease) was 0.5 nM.

With `COC(=O)N[C@@H](Cc1ccccc1-c1cccc(F)c1)C(=O)NCCCC[C@@H](CO)N(CC(C)C)S(=O)(=O)c1ccc(F)c(N)c1` [Example 56, (1S,5S)-[1-{5-[(3-Amino-4-fluoro-benzenesulfonyl)-isobutyl-amino]-6-hydroxy-hexylcarbamoyl}-2-(3′-fluoro-biphenyl-2-yl)-ethyl]-carbamic Acid Methyl Ester] the EC50 [1, 2] was 300 nM and the Ki (HIV protease) was 1.3 nM.

`COC(=O)N[C@@H](Cc1ccccc1-c1ccccc1)C(=O)NCCCC[C@@H](CO)N(CC(C)C)S(=O)(=O)c1ccc(N)cc1` [Example 39, (1S,5S)-(1-{5-[(4-Amino-benzenesulfonyl)-isobutyl-amino]-6-hydroxy-hexylcarbamoyl}-2-biphenyl-2-yl-ethyl)-carbamic Acid Methyl Ester] was tested, and the EC50 [1, 2] was 200 nM and the Ki (HIV protease) was 0.521 nM.

`CC(C)CN([C@H](CO)CCCCNC(=O)[C@H](Cc1ccc2ccccc2c1)NC(=O)N1CCOCC1)S(=O)(=O)c1ccc(N)c(Cl)c1` [Example 51, (1S,5S)-Morpholine-4-carboxylic Acid (1-{5-[(4-Amino-3-chloro-benzenesulfonyl)-isobutyl-amino]-6-hydroxy-hexylcarbamoyl}-2-naphthalen-2-yl-ethyl)-amide] was tested, and the EC50 [1, 2] was 194 nM and the Ki (HIV protease) was 0.8 nM.

Molecule `CC(C)CN([C@H](CO)CCCNC(=O)[C@@H](NC(=O)N1CCOCC1)C(c1ccccc1)c1ccccc1)S(=O)(=O)c1ccc(N)cc1` [Example 9, (1S,4S)-Morpholine-4-carboxylic Acid (1-{4-[(4-Amino-benzenesulfonyl)-isobutyl-amino]-5-hydroxy-pentylcarbamoyl}-2,2-diphenyl-ethyl)-amide] has an EC50 [1, 2] of 1300 nM and a Ki (HIV protease) of 4.2 nM.

For `COC(=O)C(=O)N[C@@H](Cc1cccc2ccccc12)C(=O)NCCC[C@@H](CO)N(CC(C)C)S(=O)(=O)c1ccc(N)cc1` [Example 11, (1S,4S)-N-(1-{4-[(4-Amino-benzenesulfonyl)-isobutyl-amino]-5-hydroxy-pentylcarbamoyl}-2-naphthalen-1-yl-ethyl)-oxalamic Acid Methyl Ester], the EC50 [1, 2] was 64000 nM and the Ki (HIV protease) was 5 nM.

Molecule `CC(C)CN([C@H](CO)CCCCNC(=O)[C@H](Cc1cccc2ccccc12)NC(=O)N1CCOCC1)S(=O)(=O)c1ccc(N)cc1` [Example 32, (1S,5S)-Morpholine-4-carboxylic Acid (1-{5-[(4-Amino-benzenesulfonyl)-isobutyl-amino]-6-hydroxy-hexylcarbamoyl}-2-naphthalen-1-yl-ethyl)-amide] has an EC50 [1, 2] of 30 nM and a Ki (HIV protease) of 0.782 nM.

Molecule `COC(=O)N[C@H](C(=O)NCCC[C@@H](CO)N(CC(C)C)S(=O)(=O)c1ccc(N)cc1)C(c1ccccc1)c1ccccc1` [Example 10, (1S,4S)-(1-{4-[(4-Amino-benzenesulfonyl)-isobutyl-amino]-5-hydroxy-pentylcarbamoyl}-2,2-diphenyl-ethyl)-carbamic Acid Methyl Ester] has an EC50 [1, 2] of 514 nM and a Ki (HIV protease) of 5 nM.

`CC(C)CN([C@H](CO)CCCNC(=O)[C@H](Cc1cccc2ccccc12)NC(=O)N1CCOCC1)S(=O)(=O)c1ccc(N)cc1` [Example 4, (1S,4S)-Morpholine-4-carboxylic Acid (1-{4-[(4-Amino-benzenesulfonyl)-isobutyl-amino]-5-hydroxy-pentylcarbamoyl}-2-naphthalen-1-yl-ethyl)-amide] showed an EC50 [1, 2] of 728 nM and a Ki (HIV protease) of 1.4 nM.

`COc1ccc(S(=O)(=O)N(CC(C)C)[C@H](CO)CCCCNC(=O)[C@H](Cc2cccc3ccccc23)NC(=O)N2CCOCC2)cc1` [Example 45, (1S,5S)-Morpholine-4-carboxylic Acid (1-{6-Hydroxy-5-[isobutyl-(4-methoxy-benzenesulfonyl)-amino]-hexylcarbamoyl}-2-naphthalen-1-yl-ethyl)-amide] gave an EC50 [1, 2] of 597 nM and a Ki (HIV protease) of 1.5 nM.

Work on `CC(C)CN([C@H](CO)CCCCNC(=O)[C@H](Cc1ccc2ccccc2c1)NC(=O)N1CCOCC1)S(=O)(=O)c1ccc(N)cc1` [Example 33, (1S,5S)-Morpholine-4-carboxylic Acid (1-{5-[(4-Amino-benzenesulfonyl)-isobutyl-amino]-6-hydroxy-hexylcarbamoyl}-2-naphthalen-2-yl-ethyl)-amide] yielded an EC50 [1, 2] of 92 nM and a Ki (HIV protease) of 0.8 nM.

With `COC(=O)N[C@@H](Cc1ccccc1-c1ccc(OC)cc1)C(=O)NCCCC[C@@H](CO)N(CC(C)C)S(=O)(=O)c1ccc(OC)cc1` [Example 36, (1S,5S)-[1-{6-Hydroxy-5-[isobutyl-(4-methoxy-benzenesulfonyl)-amino]-hexylcarbamoyl}-2-(4′-methoxy-biphenyl-2-yl)-ethyl]-carbamic Acid Methyl Ester] the EC50 [1] was 2180 nM and the Ki (HIV protease) was 3.2 nM.

In the case of `CC(C)CN([C@H](CO)CCCCNC(=O)[C@H](Cc1ccc2ccccc2c1)NC(=O)C(C)(C)C)S(=O)(=O)c1ccc(N)cc1` [Example 46, (1S,5S)-N-(1-{5-[(4-Amino-benzenesulfonyl)-isobutyl-amino]-6-hydroxy-hexylcarbamoyl}-2-naphthalen-2-yl-ethyl)-2,2-dimethyl-propionamide], the EC50 [1, 2] is reported as 167 nM and the Ki (HIV protease) is reported as 0.809 nM.

`COC(=O)NC(Cc1ccccc1-c1ccccc1)C(=O)NCCCC(CO)N(CC(C)C)S(=O)(=O)c1ccc(N)cc1` [Example 3, (1R,S,4S)-(1-{4-[(4-Amino-benzenesulfonyl)-isobutyl-amino]-5-hydroxy-pentylcarbamoyl}-2-biphenyl-2-yl-ethyl)-carbamic Acid Methyl Ester] gave an EC50 [1, 2] of 64 nM and a Ki (HIV protease) of 2.4 nM.

`COC(=O)N[C@H](C(=O)NCCCC[C@@H](CO)N(CC(C)C)S(=O)(=O)c1ccc(F)c(N)c1)C(c1ccccc1)c1ccccc1` [Example 58, (1S,5S)-(1-{5-[(3-Amino-4-fluoro-benzenesulfonyl)-isobutyl-amino]-6-hydroxy-hexylcarbamoyl}-2,2-diphenyl-ethyl)-carbamic Acid Methyl Ester] was tested, and the EC50 [1, 2] was 25 nM and the Ki (HIV protease) was 0.65 nM.

With `COC(=O)N[C@H](C(=O)NCCCC[C@@H](CO)N(CC(C)C)S(=O)(=O)c1ccc(F)cc1)C(c1ccccc1)c1ccccc1` [Example 78, (1S,5S)-(1-{5-[(4-Fluoro-benzenesulfonyl)-isobutyl-amino]-6-hydroxy-hexylcarbamoyl}-2,2-diphenyl-ethyl)-carbamic Acid Methyl Ester] the EC50 [1, 2] was 94 nM and the Ki (HIV protease) was under 3.8 nM.
